Data as given in publication PMC4830873 (Analytical and Bioanalytical Chemistry, 2016).
“Also recorded” adds a separate entry of the source. Values belong to the compound of their own block, whether it stands above or below them. Where a SMILES comes first, the peptide text is derived from it. [ ]: non-standard residue; d: D form.

Assays:
[1] = test system: dipeptidyl peptidase-IV (DPP-IV); assay: in vitro; settings: cited from earlier work
[2] = fresh human plasma samples diluted (1:1) with PBS; settings: 37 °C, up to 240 min
[3] = EDTA plasma samples after subcutaneous self-administration of Geref (Sermorelin); settings: human, up to 270 min
[4] = Rat administration study, detection in plasma after intravenous administration; assay type: in vivo, Wistar; settings: for In vivo biotransformation in rats (in words) / Anticipated metabolic products (N- or C-terminally truncated analogues) in rat plasma / Detection of intact GHRH in rat plasma 4 h post-administration / Detection of intact GHRH in rat plasma 8 h post-administration: 0.1 mg intravenous; for In vivo biotransformation in rats (in words): compared to CJC-1295; for Anticipated metabolic products (N- or C-terminally truncated analogues) in rat plasma: plasma 2, 4 and 8 h; for Detection of intact GHRH in rat plasma 4 h post-administration: plasma 4 h post dosing; for Detection of intact GHRH in rat plasma 4 h post-administration / Detection of intact GHRH in rat plasma 8 h post-administration: immunoaffinity purification and LC-HRMS/MS; for Detection of intact GHRH in rat plasma 8 h post-administration: plasma 8 h post dosing (latest collection time point)
Experimental: (§1) Sample aliquots of 100 μL of plasma were spiked with 1 μL of ISTD [200 ng/mL] and diluted with 100 μL of PBS before extraction. The multichannel pipette was equipped with up to 12 protein A/G MSIA™-Tips and up to 2000 cycles (one cycle corresponding to one round of liquid aspiration and ejection) were used for distinct sample preparation steps as outlined in Table 2. First, tips were conditioned with PBS before binding 10 μg of the polyclonal GHRH primary antibody (5 μL [2 mg/mL] in 95 μL PBS) to the proteins A/G immobilized on the monolithic adsorbent surface. After washing with PBS to remove unbound antibody residues the target analytes were extracted from plasma by antibody-antigen complex formation prior to three consecutive washing steps with PBS and water (Table 2). The peptides of interest were eluted into LoBind tubes using 3 % of aqueous acetic acid and the eluate was immediately used for injection into the UHPLC-MS(/MS) system. In Fig. 1, a schematic illustration of the relevant principle steps of the MSIA™ purification is presented.
To probe for the in vivo metabolism of Sermorelin, CJC-1293, CJC-1295, and Tesamorelin, 0.1 mg of each GHRH was administered intravenously to three rats (Rattus norvegicus, Wistar, 200–300 g bodyweight at dosing). Urine samples were collected in a metabolic cage prior to and 6, 12, 24, and 30 h after administration but not subjected to analysis in this study. Blood was sampled at 2, 4, and 8 h after injection and specimens were centrifuged at 13,000×g for 20 min to produce serum or EDTA plasma, which was stored at −20 °C until analysis. The animal studies were conducted with approval of the respective ethical committee and the laboratory followed the directive 2010/63/EU of the European parliament and the council of 22 September 2010 on the protection of animals used for scientific purposes.
All intact GHRHs administered intravenously to rats were detected in plasma samples collected 2 h post dosing. In addition, Tesamorelin, CJC-1295, and CJC-1293 were also identified in specimens sampled 4 and 8 h post-administrating (Fig. 3), with the 8-h sample representing the latest collection time point of the study. Here it appears noteworthy that only qualitative results were obtained and that no pharmacokinetic interpretation was conducted. While all analytes were unequivocally identified and differentiated by mass spectrometry, chromatographic separation was accomplished for all target peptides with the exemption of the closely related compounds Sermorelin and CJC-1293 under the chosen analytical conditions.

[5] = rat serum or EDTA plasma after intravenous administration; settings: rats (Rattus norvegicus, Wistar), up to 8 h
[6] = Human administration study, detection in EDTA plasma after subcutaneous Geref (Sermorelin); assay type: in vivo; settings: healthy volunteer, 500 μg Geref (Sermorelin) subcutaneous, n = 1
Experimental: as §1
Complementary to the aforementioned rat elimination study, a single dose of 500 μg of Geref (Sermorelin) (Hallandale Pharmacy, FL, USA) was self-administered subcutaneously by a healthy volunteer (78 kg) following the provision of written consent. EDTA plasma samples were collected 30, 90, and 270 min after dosing and the specimens were stored at −20 °C until analysis.
Compared to rat plasma samples collected after the intravenous application of Sermorelin, the human in vivo study (using subcutaneous drug application) indicates a different but also rapid metabolism of the peptide hormone. While the intact drug was not detected in any of the collected plasma samples, the in vitro-derived Sermorelin metabolite GRF3-29 was detected in plasma 30 min post injection (Fig. 4).

[7] = In vitro incubation in fresh human plasma (metabolic fate / degradation); assay type: in vitro ADME; settings: fresh human plasma diluted 1:1 with PBS, qualitative; for Degradation products (metabolites) detected after incubation in human plasma: spiked to 10 μg/mL, 30, 60, 120 and 240 min at 37 °C, LC-HRMS full scan before vs after incubation
Experimental: For the investigation of the metabolic fate of GHRHs, in vitro experiments using fresh human plasma samples were conducted, allowing to test for potential degradation products of the studied substances. In accordance to earlier reported methods, aliquots of human plasma samples were diluted (1:1) with PBS [22] and spiked to 10 μg/mL with Sermorelin or Tesamorelin, respectively. After incubation for 30, 60, 120, and 240 min at 37 °C, samples were prepared and analyzed as described elsewhere. Simulating degradation processes of exopeptidases, potential metabolites were considered by eliminating up to three amino acids from both N- and C-terminus. All samples were probed for the anticipated metabolic products as well as for the corresponding intact drugs.
Identifying potential metabolites of Sermorelin and Tesamorelin was accomplished by subtracting and comparing mass spectrometric full scan data of samples prepared before and after incubation of the substrates in fresh human plasma.

cleaved bond [2]: Ala2-D3
cleaved bond [3]: Ala2-D3, 30 min
Compound: YADAIFTNSYRKVLGQLSARKLLQDIMSR-NH2
cleaved bond [1]: Ala2-D3

In vivo biotransformation in rats (in words) [4]: readily biotransformed
Detection of intact GHRH in rat plasma 4 h post-administration ([4]; qualitative): identified
Detection of intact GHRH in rat plasma 8 h post-administration ([4]; qualitative): identified
Compound: CC[C@H](C)[C@H](NC(=O)[C@H](C)NC(=O)[C@H](CC(=O)O)NC(=O)[C@@H](C)NC(=O)[C@@H](N)Cc1ccc(O)cc1)C(=O)N[C@@H](Cc1ccccc1)C(=O)N[C@H](C(=O)N[C@@H](CC(N)=O)C(=O)N[C@@H](CO)C(=O)N[C@@H](Cc1ccc(O)cc1)C(=O)N[C@@H](CCCNC(=N)N)C(=O)N[C@@H](CCCCN)C(=O)N[C@H](C(=O)N[C@@H](CC(C)C)C(=O)NCC(=O)N[C@@H](CCC(N)=O)C(=O)N[C@@H](CC(C)C)C(=O)N[C@@H](CO)C(=O)N[C@@H](C)C(=O)N[C@@H](CCCNC(=N)N)C(=O)N[C@@H](CCCCN)C(=O)N[C@@H](CC(C)C)C(=O)N[C@@H](CC(C)C)C(=O)N[C@@H](CCC(N)=O)C(=O)N[C@@H](CC(=O)O)C(=O)N[C@H](C(=O)N[C@@H](CCSC)C(=O)N[C@@H](CO)C(=O)N[C@@H](CCCNC(=N)N)C(N)=O)[C@@H](C)CC)C(C)C)[C@@H](C)O [CJC-1293, (D-Ala^2)-GRF amide]
Anticipated metabolic products (N- or C-terminally truncated analogues) in rat plasma ([4]; qualitative): none of the anticipated metabolic products; also recorded: no analogous metabolites

Anticipated metabolic products (N- or C-terminally truncated analogues) in rat plasma ([4]; qualitative): no analogous metabolites
Detection of intact GHRH in rat plasma 4 h post-administration ([4]; qualitative): identified
Detection of intact GHRH in rat plasma 8 h post-administration ([4]; qualitative): identified
Compound: CC[C@H](C)[C@H](NC(=O)[C@H](C)NC(=O)[C@H](CC(=O)O)NC(=O)[C@@H](C)NC(=O)[C@@H](N)Cc1ccc(O)cc1)C(=O)N[C@@H](Cc1ccccc1)C(=O)N[C@H](C(=O)N[C@@H](CCC(N)=O)C(=O)N[C@@H](CO)C(=O)N[C@@H](Cc1ccc(O)cc1)C(=O)N[C@@H](CCCNC(=N)N)C(=O)N[C@@H](CCCCN)C(=O)N[C@H](C(=O)N[C@@H](CC(C)C)C(=O)N[C@@H](C)C(=O)N[C@@H](CCC(N)=O)C(=O)N[C@@H](CC(C)C)C(=O)N[C@@H](CO)C(=O)N[C@@H](C)C(=O)N[C@@H](CCCNC(=N)N)C(=O)N[C@@H](CCCCN)C(=O)N[C@@H](CC(C)C)C(=O)N[C@@H](CC(C)C)C(=O)N[C@@H](CCC(N)=O)C(=O)N[C@@H](CC(=O)O)C(=O)N[C@H](C(=O)N[C@@H](CC(C)C)C(=O)N[C@@H](CO)C(=O)N[C@@H](CCCNC(=N)N)C(N)=O)[C@@H](C)CC)C(C)C)[C@@H](C)O [CJC-1295, (D-Ala^2, Gln^8, Ala^15, Leu^27)-GRF amide] (H-Y[dA]DAIFTQSYRKVLAQLSARKLLQDILSR-NH2)

Compound: hexenoyl-YADAIFTNSYRKVLGQLSARKLLQDIMSRQQGESNQERGARARL-NH2
not cleaved [2]: no degradation products of considerable abundance were detected
not cleaved [5]: identified at all sampling points (i.e., up to 8 h post-administration)

Detection of metabolite in human plasma 30 min post injection ([6]; EDTA plasma 30 min): detected
Detection of metabolite in human plasma 90 min post injection ([6]; EDTA plasma 90 min): negative
Compound: DAIFTNSYRKVLGQLSARKLLQDIMSR-NH2 [Sermorelin metabolite, GRF3-29, metabolite of Sermorelin originating from the loss of the N-terminal Tyr-Ala-residue]

Intact drug remaining after incubation in human plasma ([7]; spiked to 10 μg/mL, 37 °C, after a period of 4 h (240 min), LC-HRMS full scan): entirely degraded
Detection window of intact substance in plasma ([4]; 0.1 mg intravenous single dose, sampling at 2, 4 and 8 h, qualitative): ≤ 2 h
In vivo biotransformation in rats (in words) [4]: readily biotransformed
Detection of intact drug in human plasma after subcutaneous application ([6]; EDTA plasma 30, 90 and 270 min after dosing): not detected
Compound: CC[C@H](C)[C@H](NC(=O)[C@H](C)NC(=O)[C@H](CC(=O)O)NC(=O)[C@H](C)NC(=O)[C@@H](N)Cc1ccc(O)cc1)C(=O)N[C@@H](Cc1ccccc1)C(=O)N[C@H](C(=O)N[C@@H](CC(N)=O)C(=O)N[C@@H](CO)C(=O)N[C@@H](Cc1ccc(O)cc1)C(=O)N[C@@H](CCCNC(=N)N)C(=O)N[C@@H](CCCCN)C(=O)N[C@H](C(=O)N[C@@H](CC(C)C)C(=O)NCC(=O)N[C@@H](CCC(N)=O)C(=O)N[C@@H](CC(C)C)C(=O)N[C@@H](CO)C(=O)N[C@@H](C)C(=O)N[C@@H](CCCNC(=N)N)C(=O)N[C@@H](CCCCN)C(=O)N[C@@H](CC(C)C)C(=O)N[C@@H](CC(C)C)C(=O)N[C@@H](CCC(N)=O)C(=O)N[C@@H](CC(=O)O)C(=O)N[C@H](C(=O)N[C@@H](CCSC)C(=O)N[C@@H](CO)C(=O)N[C@@H](CCCNC(=N)N)C(N)=O)[C@@H](C)CC)C(C)C)[C@@H](C)O [Sermorelin, GHRH1-29]
Degradation products (metabolites) detected after incubation in human plasma [7]: the earlier reported metabolite (GRF3-29) [7] was observed
Anticipated metabolic products (N- or C-terminally truncated analogues) in rat plasma ([4]; qualitative): none of the anticipated metabolic products

Detection of intact GHRH in rat plasma 4 h post-administration ([4]; qualitative): identified
Detection of intact GHRH in rat plasma 8 h post-administration ([4]; qualitative): identified
Compound: CC/C=C/CC(=O)N[C@@H](Cc1ccc(O)cc1)C(=O)N[C@@H](C)C(=O)N[C@@H](CC(=O)O)C(=O)N[C@@H](C)C(=O)N[C@H](C(=O)N[C@@H](Cc1ccccc1)C(=O)N[C@H](C(=O)N[C@@H](CC(N)=O)C(=O)N[C@@H](CO)C(=O)N[C@@H](Cc1ccc(O)cc1)C(=O)N[C@@H](CCCNC(=N)N)C(=O)N[C@@H](CCCCN)C(=O)N[C@H](C(=O)N[C@@H](CC(C)C)C(=O)NCC(=O)N[C@@H](CCC(N)=O)C(=O)N[C@@H](CC(C)C)C(=O)N[C@@H](CO)C(=O)N[C@@H](C)C(=O)N[C@@H](CCCNC(=N)N)C(=O)N[C@@H](CCCCN)C(=O)N[C@@H](CC(C)C)C(=O)N[C@@H](CC(C)C)C(=O)N[C@@H](CCC(N)=O)C(=O)N[C@@H](CC(=O)O)C(=O)N[C@H](C(=O)N[C@@H](CCSC)C(=O)N[C@@H](CO)C(=O)N[C@@H](CCCNC(=N)N)C(=O)N[C@@H](CCC(N)=O)C(=O)N[C@@H](CCC(N)=O)C(=O)NCC(=O)N[C@@H](CCC(=O)O)C(=O)N[C@@H](CO)C(=O)N[C@@H](CC(N)=O)C(=O)N[C@@H](CCC(N)=O)C(=O)N[C@@H](CCC(=O)O)C(=O)N[C@@H](CCCNC(=N)N)C(=O)NCC(=O)N[C@@H](C)C(=O)N[C@@H](CCCNC(=N)N)C(=O)N[C@@H](C)C(=O)N[C@@H](CCCNC(=N)N)C(=O)N[C@@H](CC(C)C)C(N)=O)[C@@H](C)CC)C(C)C)[C@@H](C)O)[C@@H](C)CC [Tesamorelin]
Degradation products (metabolites) detected after incubation in human plasma [7]: no degradation products of considerable abundance were detected
